Measured values taken from ChEMBL document CHEMBL1154147, “Antityrosinase and antioxidant effects of ent-kaurane diterpenes from leaves of Broussonetia papyrifera” (J Nat Prod, 2008).

Key:
[1] = test system: Radical scavenging activity
Description: Antioxidant activity assessed as DPPH free radical scavenging activity after 30 mins

Tyrosinase [2] = molecular target: T1, Tyrosinase (Agaricus bisporus, UniProt O42713)
T1 sequence (O42713 whole entry): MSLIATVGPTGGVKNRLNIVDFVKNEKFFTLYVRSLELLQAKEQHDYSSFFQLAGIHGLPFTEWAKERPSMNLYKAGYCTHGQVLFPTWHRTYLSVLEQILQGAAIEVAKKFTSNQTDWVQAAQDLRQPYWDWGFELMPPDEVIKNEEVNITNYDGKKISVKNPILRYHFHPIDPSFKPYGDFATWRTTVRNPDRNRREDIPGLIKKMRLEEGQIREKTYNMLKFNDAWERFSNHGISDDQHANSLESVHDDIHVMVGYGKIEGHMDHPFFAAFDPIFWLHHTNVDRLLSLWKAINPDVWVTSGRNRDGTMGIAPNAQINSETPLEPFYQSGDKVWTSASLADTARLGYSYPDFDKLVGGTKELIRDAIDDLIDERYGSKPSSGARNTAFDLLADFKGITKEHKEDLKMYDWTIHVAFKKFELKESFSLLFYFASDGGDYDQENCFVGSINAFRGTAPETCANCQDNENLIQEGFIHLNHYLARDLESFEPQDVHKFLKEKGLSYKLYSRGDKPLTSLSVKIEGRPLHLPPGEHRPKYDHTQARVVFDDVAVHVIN
Description: (§1) Inhibition of mushroom tyrosinase after 30 mins

Tyrosinase [3] = molecular target: T1, Tyrosinase; remark: listed apart in the source
Description: (§2) Inhibition of mushroom tyrosinase after 90 mins

Tyrosinase [4] = molecular target: T1, Tyrosinase; remark: listed apart in the source
Description: as §1

Tyrosinase [5] = molecular target: T1, Tyrosinase; remark: listed apart in the source
Description: as §2

| Compound | IC50 [1] | IC50 (Tyrosinase [2]) | IC50 (Tyrosinase [3]) | IC50 (Tyrosinase [4]) | IC50 (Tyrosinase [5]) |
| --- | --- | --- | --- | --- | --- |
| O=c1cc(-c2ccc(O)cc2)oc2cc(O)cc(O)c12 [APIGENIN] | Not Active | 305 µM | 305 µM | – | – |
| CC1(C)CCC[C@]2(C)[C@@H]1C(=O)[C@@H](O)[C@@]13C[C@H](CC[C@@H]21)[C@@](O)(CO)C3 [BROUSSONETONE A] | Not Active | 336 µM | 322 µM | – | – |
| CC1(C)CCC[C@]2(C)[C@@H]1C(=O)[C@H](O)[C@@]13C[C@H](CC[C@@H]21)[C@@](O)(CO)C3 [BROUSSONETONE B] | Not Active | – | 317 µM | Not Active | – |
| CC1(C)OC[C@]2(C[C@]34C[C@@H]2CC[C@H]3[C@]2(C)CCCC(C)(C)[C@H]2C(=O)[C@H]4O)O1 [BROUSSONETONE C] | Not Active | 353 µM | 323 µM | – | – |
| COc1ccc(O)c(C(C)(C)C)c1.COc1ccc(O)cc1C(C)(C)C [BUTYLATED HYDROXYANISOLE] | 79.2 µM | – | – | – | – |
| O=c1cc(-c2ccc(O)cc2)oc2c([C@@H]3O[C@H](CO)[C@@H](O)[C@H](O)[C@H]3O)c(O)cc(O)c12 [VITEXIN] | Not Active | – | – | Not Active | Not Active |
